Where a SMILES comes first, the peptide text is derived from it.
Legend:
[1] = ThT fluorescence, self-assembly of peptide inhibitors without Tau; type: physicochemical; conditions: ThT end-point 24 h, 37°C; 20 µM peptide without Tau, 5 µM heparin, 30 mM Tris, 1 mM DTT, 15 µM ThT, pH 7.4; triplicate
Description: (§1) Fluorescence was measured (λex = 442 nm, λem = 483 nm), and data were normalized. […] The addition of inhibitor to the growth phase was controlled by adding an equivalent volume of buffer alone.
(§2) Experiments were conducted in triplicate and error bars were reported as standard deviation. Statistical analysis: p > 0.05, *p ≤ 0.05, **p ≤ 0.01, ***p ≤ 0.001.

[2] = target: T1, Tau^Δ1‐250 (Homo sapiens, UniProt P10636); assay: ThT fluorescence, heparin-induced aggregation of Tau^Δ1‐250; type: biochemical; conditions: 5 µM heparin, pH 7.4, triplicate; for effect on Tau^Δ1‐250 aggregation (in words): ThT end-point 24 h, 20 µM Tau^Δ1‐250, 20 µM peptide
T1 construct: Tau^Δ1‐250 (an aggregate prone truncated version of full‐length Tau); made in house; host or cells: E. coli BL21(DE3)
T1 sequence (P10636 568-758, stated change not applied): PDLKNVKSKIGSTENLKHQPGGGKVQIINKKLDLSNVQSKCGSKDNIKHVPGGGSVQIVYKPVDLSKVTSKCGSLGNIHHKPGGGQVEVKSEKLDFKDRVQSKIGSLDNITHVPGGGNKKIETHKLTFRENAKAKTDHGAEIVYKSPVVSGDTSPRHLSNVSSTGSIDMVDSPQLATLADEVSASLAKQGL
Description: as §1, §2

[3] = system: Tau repeat domain (RD) with the P301S mutation fused to mCer and mClo, HEK293 biosensor cells; assay: Tau fibril seeding in FRET Tau biosensor cells; type: cell-based, human; conditions: biosensor cells, fibrils preincubated with 0–500 µM peptide; Figure 5C
Description: Tau biosensor cells culture: RD P301S Tau biosensor cells have been previously described,[45] and in this case v2L cells were used. Cells were cultured in 10 cm dishes containing Dulbecco's Modified Eagle's Medium (DMEM) (Gibco) enriched with 10% FBS (HyClone), 1% penicillin/streptomycin (Gibco), and 1% GlutaMAX (Gibco) at 37°C with 5% CO2 in a humidified incubator.
5 µM of tau fibrils (monomer equivalent) were incubated in PBS with peptide RI‐AG03 or scramble (0–500 µM) at 300 rpm agitation at 4°C for 16 h. The reaction was stopped by flash freezing in liquid nitrogen and stored at –20°C. Tau biosensor cells were plated at a density of 30,000 cells in 120 µL of media per well in a 96‐well plate. After 18 h, using Lipofectamine 2000 cells were transduced with 10 nM of treated fibrils that had been briefly sonicated for 30 s at 65 Amp (QSonica). Lipofectamine complexes were formed in 30 µL consisting of 14.17 µL Opti‐MEM (Gibco), 15 µL of treated fibrils diluted in PBS, and 0.83 µL lipofectamine 2000 (Invitrogen), bringing the total volume to 150 µL. […] Aggregates in Tau biosensors (10,000 minimum) were quantified by FRET flow cytometry in a LSRFortessa SORP (BD Biosciences). To detect the cerulean signal, cells were excited with a 405 nm laser, and fluorescence was captured at […]. For clover signal, cells were excited with a 488 nm laser and fluorescence was detected at 525/50 nm. Flow cytometry data were analyzed using a gating strategy previously described.[45], [47] The percentage of cells with positive FRET signal were quantified. Each condition was analyzed in quadruplicate. […]
To test RI‐AG03 efficacy in mammalian cells, we utilized a fluorescence resonance energy transfer (FRET) biosensor HEK293 cell line that stably expresses the Tau repeat domain (RD) with the P301S mutation fused to mCer and mClo. These cells[45] or prior generations[71] have been used extensively to quantify Tau seeding activity and measure intracellular aggregation.[71] […] Seeded aggregation was quantified by the percentage of FRET positivity.

[4] = target: T2, Tau^2N4R (Homo sapiens, UniProt P10636); assay: ThT fluorescence end-point, heparin-induced aggregation of Tau^2N4R; type: biochemical; conditions: ThT end-point 216 h (9 days); Tau^2N4R, 20 µM peptide, 10 µM heparin, pH 7.4
T2 construct: and full‐length Tau (Tau^2N4R); made in house; host or cells: E. coli BL21
T2 sequence (P10636 1-441 isoform P10636-8): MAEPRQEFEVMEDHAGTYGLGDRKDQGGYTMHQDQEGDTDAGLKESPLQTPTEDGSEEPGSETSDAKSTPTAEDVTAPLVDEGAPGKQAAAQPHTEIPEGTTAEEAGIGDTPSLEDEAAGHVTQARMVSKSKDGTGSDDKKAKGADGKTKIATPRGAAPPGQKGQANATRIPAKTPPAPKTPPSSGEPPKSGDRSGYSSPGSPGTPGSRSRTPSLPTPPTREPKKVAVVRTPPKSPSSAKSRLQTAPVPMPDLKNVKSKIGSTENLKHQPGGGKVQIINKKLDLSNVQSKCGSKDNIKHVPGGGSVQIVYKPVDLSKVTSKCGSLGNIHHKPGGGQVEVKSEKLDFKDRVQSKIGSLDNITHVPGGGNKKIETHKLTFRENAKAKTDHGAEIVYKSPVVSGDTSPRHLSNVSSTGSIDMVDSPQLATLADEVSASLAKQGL
Description: as §1
FIGURE 3 Lead peptide RI‐AG03 dose‐response and target specificity. […] (C) Concentration‐dependent inhibition of by Tau^Δ1‐250 by RI‐AG03. […] (E) Concentration‐dependent inhibition of by Tau^2N4R by RI‐AG03. […] (F) log10 scatter graph of Tau^2N4R inhibition by RI‐AG03 employing a curve fitting algorithm to calculate the IC50 at 5 µM. Experiments were conducted in triplicate and error bars were reported as standard deviation. One factor repeated measures ANOVA + Tukey post hoc statistical analysis: p > 0.05, *p ≤ 0.05, **p ≤ 0.01, ***p ≤ 0.001.

Q: With `CC[C@H](C)[C@H](NC(=O)[C@H](CCC(N)=O)NC(=O)[C@@H](NC(=O)CNC(=O)[C@H](CCCNC(=N)N)NC(C)=O)C(C)C)C(=O)N[C@H](C(=O)N[C@@H](CC(N)=O)C(=O)N[C@@H](CCCCN)C(=O)NCC(=O)N[C@@H](CCCNC(=N)N)C(N)=O)[C@@H](C)CC` [AG01] (Ac-RGVQIINKGR-NH2) as the compound, how does the “self-aggregation of peptide (in words)” value [1] read?
A: Its value is “self‐aggregated”.

Q: Which “effect on Tau^Δ1‐250 aggregation (in words)” value [2] does the source give for `CC[C@H](C)[C@H](NC(=O)[C@H](CCC(N)=O)NC(=O)[C@@H](NC(=O)CNC(=O)[C@H](CCCNC(=N)N)NC(C)=O)C(C)C)C(=O)N[C@H](C(=O)N[C@@H](Cc1ccc(O)cc1)C(=O)N[C@@H](CCCCN)C(=O)N1CCC[C@H]1C(=O)NCC(=O)N[C@@H](CCCNC(=N)N)C(=O)N[C@@H](CCCNC(=N)N)C(=O)N[C@@H](CCCNC(=N)N)C(=O)N[C@@H](CCCNC(=N)N)C(N)=O)C(C)C` [AG02PR5] (Ac-RGVQIVYKPGRRRR-NH2) here?
A: Its value is “no additional benefit”.

Q: For `CC[C@H](C)[C@H](NC(=O)[C@H](CCC(N)=O)NC(=O)[C@@H](NC(=O)CNC(=O)[C@H](CCCNC(=N)N)NC(C)=O)C(C)C)C(=O)N[C@H](C(=O)N[C@@H](Cc1ccc(O)cc1)C(=O)N[C@@H](CCCCN)C(=O)NCC(=O)N[C@@H](CCCNC(=N)N)C(=O)N[C@@H](Cc1ccc(O)cc1)C(=O)NCC(=O)N[C@@H](CCCNC(=N)N)C(=O)N[C@@H](CCCCN)C(=O)N[C@@H](CCCCN)C(=O)N[C@@H](CCCNC(=N)N)C(=O)N[C@@H](CCCNC(=N)N)C(=O)N[C@@H](CCC(N)=O)C(=O)N[C@@H](CCCNC(=N)N)C(=O)N[C@@H](CCCNC(=N)N)C(=O)N[C@@H](CCCNC(=N)N)C(N)=O)C(C)C` [AG02TAT] (Ac-RGVQIVYKGRYGRKKRRQRRR-NH2), which “self-aggregation of peptide (in words)” value [1] is on record?
A: The value was “greater self‐association into β‐sheets than all other AG02‐derived peptides”.

Q: What about the “effect on Tau^Δ1‐250 aggregation (in words)” value [2] of the same compound?
A: Its value is “no significant additional inhibitory benefits”.

Q: With `CC(=O)NCCCC[C@H](NC(=O)[C@H](CCC(N)=O)NC(=O)[C@@H](NC(=O)CNC(=O)[C@H](CCCNC(=N)N)NC(C)=O)C(C)C)C(=O)N[C@H](C(=O)N[C@@H](Cc1ccc(O)cc1)C(=O)N[C@@H](CCCCN)C(=O)NCC(=O)N[C@@H](CCCNC(=N)N)C(N)=O)C(C)C` [AG02∆I] (Ac-RGVQK(Ac)VYKGR-NH2) as the compound, how does the “self-aggregation of peptide (in words)” value [1] read?
A: Its value is “demonstrated self‐aggregation ability”.

Q: For `CC[C@H](C)[C@H](NC(=O)[C@H](CCC(N)=O)NC(=O)[C@@H](NC(=O)CNC(=O)[C@H](CCCNC(=N)N)NC(C)=O)C(C)C)C(=O)N[C@@H](CCCCNC(C)=O)C(=O)N[C@@H](Cc1ccc(O)cc1)C(=O)N[C@@H](CCCCN)C(=O)NCC(=O)N[C@@H](CCCNC(=N)N)C(N)=O` [AG02∆V] (Ac-RGVQIK(Ac)YKGR-NH2), which “self-aggregation of peptide (in words)” value [1] is on record?
A: The value was “demonstrated a tendency for self‐aggregation, though to a smaller extent”.

Q: For `CC[C@H](C)[C@H](NC(=O)[C@H](CCC(N)=O)NC(=O)[C@@H](NC(=O)CNC(=O)[C@H](CCCNC(=N)N)NC(C)=O)C(C)C)C(=O)N[C@@H](CCCCNC(C)=O)C(=O)N[C@@H](Cc1ccc(O)cc1)C(=O)N[C@@H](CCCCN)C(=O)N1CCC[C@H]1C(=O)NCC(=O)N[C@@H](CCCNC(=N)N)C(=O)N[C@@H](CCCNC(=N)N)C(=O)N[C@@H](CCCNC(=N)N)C(=O)N[C@@H](CCCNC(=N)N)C(=O)N[C@@H](CCCNC(=N)N)C(=O)N[C@@H](CCCNC(=N)N)C(=O)N[C@@H](CCCNC(=N)N)C(=O)N[C@@H](CCCNC(=N)N)C(N)=O` [AG03] (Ac-RGVQIK(Ac)YKPGRRRRRRRR-NH2), which “self-aggregation of peptide (in words)” value [1] is on record?
A: The value was “minimal self‐aggregation”.

Q: And the “inhibition of Tau^Δ1‐250 aggregation” value ([2]; ThT end-point after 24 h, 37°C, 20 µM Tau^Δ1‐250, 20 µM peptide (equimolar), 30 mM Tris, 1 mM DTT, 15 µM ThT)?
A: Its value is about 53%.

Q: Which “effect on Tau^Δ1‐250 aggregation (in words)” value [2] does the source give for `CC[C@H](C)[C@H](NC(=O)[C@H](CCC(N)=O)NC(=O)[C@@H](NC(=O)CNC(=O)[C@H](CCCNC(=N)N)NC(=O)[C@H](CCCNC(=N)N)NC(=O)[C@H](CCCNC(=N)N)NC(=O)[C@H](CCCNC(=N)N)NC(C)=O)C(C)C)C(=O)N[C@H](C(=O)N[C@@H](Cc1ccc(O)cc1)C(=O)N[C@@H](CCCCN)C(=O)NCC(=O)N[C@@H](CCCNC(=N)N)C(N)=O)C(C)C` [AGR502] (Ac-RRRRGVQIVYKGR-NH2) here?
A: Its value is “did not affect peptide inhibitory action”.

Q: For `CC(=O)N[C@@H](CCCNC(=N)N)C(=O)N[C@@H](CCCNC(=N)N)C(=O)N[C@@H](CCCNC(=N)N)C(=O)N[C@@H](CCCNC(=N)N)C(=O)N[C@@H](CCCNC(=N)N)C(=O)N[C@@H](CCCNC(=N)N)C(=O)N[C@@H](CCCNC(=N)N)C(=O)N[C@@H](CCCNC(=N)N)C(=O)N[C@@H](CCCNC(=N)N)C(N)=O` [Poly‐arginine, reference compound], which “effect on Tau^Δ1‐250 aggregation (in words)” value [2] is on record?
A: The value was “no effect on aggregation”.

Q: Which “concentrations with peptide‐induced toxicity (decrease in FRET positivity)” value [3] does the source give for `CC[C@H](C)[C@H](NC(=O)[C@H](CCCCN)NC(=O)[C@@H]1CCCN1C(=O)[C@H](CCC(N)=O)NC(=O)CNC(=O)[C@H](CCCNC(=N)N)NC(C)=O)C(=O)N[C@@H](CCCCNC(C)=O)C(=O)N[C@@H](Cc1ccc(O)cc1)C(=O)N[C@H](C(=O)NCC(=O)N[C@@H](CCCNC(=N)N)C(=O)N[C@@H](CCCNC(=N)N)C(=O)N[C@@H](CCCNC(=N)N)C(=O)N[C@@H](CCCNC(=N)N)C(=O)N[C@@H](CCCNC(=N)N)C(=O)N[C@@H](CCCNC(=N)N)C(=O)N[C@@H](CCCNC(=N)N)C(=O)N[C@@H](CCCNC(=N)N)C(N)=O)C(C)C` [Scramble AG03, reference compound] (Ac-RGQPKIK(Ac)YVGRRRRRRRR-NH2) here?
A: The value was “above 100 µM”.

Q: And the “effect on Tau^2N4R aggregation (in words)” value [4]?
A: Its value is “did not suppress aggregation”.

Q: What about the “effect on Tau^Δ1‐250 aggregation (in words)” value [2] of the same compound?
A: Its value is “no effect on aggregation”.

Source: PMC11567856, “A novel peptide‐based tau aggregation inhibitor as a potential therapeutic for Alzheimer's disease and other tauopathies” (Alzheimer's & Dementia, 2024)
